Where two headings read alike, the source gives them in different places.
Molecular target: T1, CECR2 (Homo sapiens, UniProt Q9BXF3)
T1 construct: 424-538 was cloned, expressed, and purified to homogeneity; Flag; made in house
Assay: CECR2 TR-FRET Binding Assay
From the text: IC50 Measurements for Inhibitors Using CECR2 TR-FRET Binding Assay

T1 sequence (Q9BXF3 424-538 limits assumed): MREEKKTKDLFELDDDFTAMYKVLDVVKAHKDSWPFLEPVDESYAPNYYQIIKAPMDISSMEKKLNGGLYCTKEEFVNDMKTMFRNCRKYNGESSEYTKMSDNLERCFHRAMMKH

Structure (SMILES)	IC50 (read-out: IC50) [µM]	IC50 (IC50 (uM)) [µM]
CN(C(=O)c1cn(C)c(=O)c2[nH]ccc12)C1CCN(c2cnccn2)CC1 [Example 143, N,6-dimethyl-7-oxo-N-(1-pyrazin-2-yl-4-piperidyl)-1H-pyrrolo[2,3-c]pyridine-4-carboxamide]	0.4	
Cc1ccnc(N2CCC(N(C)C(=O)c3cn(C)c(=O)c4[nH]ccc34)CC2)n1 [Example 144, N,6-dimethyl-N-[1-(4-methylpyrimidin-2-yl)-4-piperidyl]-7-oxo-1H-pyrrolo[2,3-c]pyridine-4-carboxamide]	0.43	
CN(C(=O)c1cn(C)c(=O)c2[nH]ccc12)C1CCN(c2cccnn2)CC1 [Example 145, N,6-dimethyl-7-oxo-N-(1-pyridazin-3-yl-4-piperidyl)-1H-pyrrolo[2,3-c]pyridine-4-carboxamide]	0.41	
CN(C(=O)c1cn(C)c(=O)c2[nH]ccc12)C1CCN(c2ncc(F)cn2)CC1 [Example 147, N-[1-(5-fluoropyrimidin-2-yl)-4-piperidyl]-N,6-dimethyl-7-oxo-1H-pyrrolo[2,3-c]pyridine-4-carboxamide]	0.51	
CN(CC1CCN(c2ccncn2)CC1)C(=O)c1cn(C)c(=O)c2[nH]ccc12 [Example 158, N,6-dimethyl-7-oxo-N-[(1-pyrimidin-4-yl-4-piperidyl)methyl]-1H-pyrrolo[2,3-c]pyridine-4-carboxamide]	0.79	
C=CCn1cc(C(=O)N(C)C2CCN(c3ccnc(C#N)n3)CC2)c2cc[nH]c2c1=O [Example 160, 6-allyl-N-[1-(2-cyanopyrimidin-4-yl)-4-piperidyl]-N-methyl-7-oxo-1H-pyrrolo[2,3-c]pyridine-4-carboxamide]	0.18	
C=CCn1cc(C(=O)N(C)C2CCN(c3cc(OC)ncn3)CC2)c2cc[nH]c2c1=O [Example 162, 6-allyl-N-[1-(6-methoxypyrimidin-4-yl)-4-piperidyl]-N-methyl-7-oxo-1H-pyrrolo[2,3-c]pyridine-4-carboxamide]		0.12
C=CCn1cc(C(=O)N(C)C2CCN(c3ncnc4c3CCC4)CC2)c2cc[nH]c2c1=O [Example 163, 6-allyl-N-[1-(6,7-dihydro-5H-cyclopenta[d]pyrimidin-4-yl)-4-piperidyl]-N-methyl-7-oxo-1H-pyrrolo[2,3-c]pyridine-4-carboxamide]	0.091	
C=CCn1cc(C(=O)N(C)C2CCN(c3cc(C(F)(F)F)ncn3)CC2)c2cc[nH]c2c1=O [Example 164, 6-allyl-N-methyl-7-oxo-N-[1-[6-(trifluoromethyl)pyrimidin-4-yl]-4-piperidyl]-1H-pyrrolo[2,3-c]pyridine-4-carboxamide]		0.21
C=CCn1cc(C(=O)N(C)C2CCN(c3cc(C)nc(C)n3)CC2)c2cc[nH]c2c1=O [Example 165, 6-allyl-N-[1-(2,6-dimethylpyrimidin-4-yl)-4-piperidyl]-N-methyl-7-oxo-1H-pyrrolo[2,3-c]pyridine-4-carboxamide]		0.087
C=CCn1cc(C(=O)N(C)C2CCN(c3cc(C(C)C)ncn3)CC2)c2cc[nH]c2c1=O [Example 167, 6-allyl-N-[1-(6-isopropylpyrimidin-4-yl)-4-piperidyl]-N-methyl-7-oxo-1H-pyrrolo[2,3-c]pyridine-4-carboxamide]	0.12	
C=CCn1cc(C(=O)N(C)C2CCN(c3cc(C)nc(C4CC4)n3)CC2)c2cc[nH]c2c1=O [Example 168, 6-allyl-N-[1-(2-cyclopropyl-6-methyl-pyrimidin-4-yl)-4-piperidyl]-N-methyl-7-oxo-1H-pyrrolo[2,3-c]pyridine-4-carboxamide]	0.042	
C=CCn1cc(C(=O)N(C)C2CCN(c3cncc(-n4cccn4)n3)CC2)c2cc[nH]c2c1=O [Example 169, 6-allyl-N-methyl-7-oxo-N-[1-(6-pyrazol-1-ylpyrazin-2-yl)-4-piperidyl]-1H-pyrrolo[2,3-c]pyridine-4-carboxamide]	0.023	
C=CCn1cc(C(=O)N(C)C2CCN(c3cc(-n4cccn4)ncn3)CC2)c2cc[nH]c2c1=O [Example 170, 6-allyl-N-methyl-7-oxo-N-[1-(6-pyrazol-1-ylpyrimidin-4-yl)-4-piperidyl]-1H-pyrrolo[2,3-c]pyridine-4-carboxamide]		0.042
CN(C(=O)c1cn(C)c(=O)c2[nH]ccc12)C1CCN(c2ccccc2)CC1 [Example 172, N,6-dimethyl-7-oxo-N-(1-phenyl-4-piperidyl)-1H-pyrrolo[2,3-c]pyridine-4-carboxamide]	1	
Cc1cccc(N2CCC(N(C)C(=O)c3cn(C)c(=O)c4[nH]ccc34)CC2)c1 [Example 173, N,6-dimethyl-N-[1-(m-tolyl)-4-piperidyl]-7-oxo-1H-pyrrolo[2,3-c]pyridine-4-carboxamide]	0.99	
CN(C(=O)c1cn(C)c(=O)c2[nH]ccc12)C1CCN(c2cccc(C(F)(F)F)c2)CC1 [Example 174, N,6-dimethyl-7-oxo-N-[1-[3-(trifluoromethyl)phenyl]-4-piperidyl]-1H-pyrrolo[2,3-c]pyridine-4-carboxamide]	0.59	
CN(C(=O)c1cn(C)c(=O)c2[nH]ccc12)C1CCN(c2ccc(C(F)(F)F)cc2)CC1 [Example 175, N,6-dimethyl-7-oxo-N-[1-[4-(trifluoromethyl)phenyl]-4-piperidyl]-1H-pyrrolo[2,3-c]pyridine-4-carboxamide]	0.76	
Cc1ccc(N2CCC(N(C)C(=O)c3cn(C)c(=O)c4[nH]ccc34)CC2)cc1 [Example 176, N,6-dimethyl-7-oxo-N-[1-(p-tolyl)-4-piperidyl]-1H-pyrrolo[2,3-c]pyridine-4-carboxamide]	0.93	
CCc1cccc(N2CCC(N(C)C(=O)c3cn(C)c(=O)c4[nH]ccc34)CC2)c1 [Example 177, N-[1-(3-ethylphenyl)-4-piperidyl]-N,6-dimethyl-7-oxo-1H-pyrrolo[2,3-c]pyridine-4-carboxamide]	0.69	
CCc1ccc(N2CCC(N(C)C(=O)c3cn(C)c(=O)c4[nH]ccc34)CC2)cc1 [Example 178, N-[1-(4-ethylphenyl)-4-piperidyl]-N,6-dimethyl-7-oxo-1H-pyrrolo[2,3-c]pyridine-4-carboxamide]	0.74	
CN1CCC(CCN(C)C(=O)c2cn(C)c(=O)c3[nH]ccc23)CC1 [Example 181, N,6-dimethyl-N-[2-(1-methyl-4-piperidyl)ethyl]-7-oxo-1H-pyrrolo[2,3-c]pyridine-4-carboxamide]	0.73	
CCN1CCC(CCN(C)C(=O)c2cn(C)c(=O)c3[nH]ccc23)CC1 [Example 182]	0.41	
CC(C)N1CCC(CCN(C)C(=O)c2cn(C)c(=O)c3[nH]ccc23)CC1 [Example 183]	0.49	

Structure (SMILES)	IC50 (read-out: IC50) [µM]	IC50 (IC50 (uM)) [µM]
CN(CCC1CCN(C2CCC2)CC1)C(=O)c1cn(C)c(=O)c2[nH]ccc12 [Example 184]	0.47	
COCCN1CCC(CCN(C)C(=O)c2cn(C)c(=O)c3[nH]ccc23)CC1 [Example 185]	0.91	
CN(CC1CCN(CC2CCCC2)CC1)C(=O)c1cn(C)c(=O)c2[nH]ccc12 [Example 187, N-[[1-(cyclopentylmethyl)-4-piperidyl]methyl]-N,6-dimethyl-7-oxo-1H-pyrrolo[2,3-c]pyridine-4-carboxamide]	0.79	
CN1CCC(CN(C)C(=O)c2cn(C)c(=O)c3[nH]ccc23)CC1 [Example 188]	2	
CN(CC1CCN(C2CCC2)CC1)C(=O)c1cn(C)c(=O)c2[nH]ccc12 [Example 189]	1	
CCN1CCC(CN(C)C(=O)c2cn(C)c(=O)c3[nH]ccc23)CC1 [Example 191]	0.59	
CN(CC1CCN(C2CC2)CC1)C(=O)c1cn(C)c(=O)c2[nH]ccc12 [Example 192]	1.4	
CC(c1ccccc1)N1CCC(CN(C)C(=O)c2cn(C)c(=O)c3[nH]ccc23)CC1 (stereo not drawn) [Example 197]	0.73	
CN(CC1CCN(Cc2ccccc2F)CC1)C(=O)c1cn(C)c(=O)c2[nH]ccc12 [Example 201]	0.99	
CN(CC1CCN(Cc2cccc(F)c2)CC1)C(=O)c1cn(C)c(=O)c2[nH]ccc12 [Example 202]	1.3	
CN(CC1CCN(Cc2ccc(F)cc2)CC1)C(=O)c1cn(C)c(=O)c2[nH]ccc12 [Example 203]	1.1	
Cc1cccc(CN2CCC(CN(C)C(=O)c3cn(C)c(=O)c4[nH]ccc34)CC2)c1 [Example 204]	1.1	
CN(CC1CCN(C2CCCC2)CC1)C(=O)c1cn(C)c(=O)c2[nH]ccc12 [Example 205]	0.71	
CN(CC1CCN(CC2CCCCC2)CC1)C(=O)c1cn(C)c(=O)c2[nH]ccc12 [Example 206]	0.37	
CC(C)CN1CCC(N(C)C(=O)c2cn(C)c(=O)c3[nH]ccc23)CC1 [Example 207, N-(1-isobutyl-4-piperidyl)-N,6-dimethyl-7-oxo-1H-pyrrolo[2,3-c]pyridine-4-carboxamide]	0.81	
CN(C(=O)c1cn(C)c(=O)c2[nH]ccc12)C1CCN(CC2CC2)CC1 [Example 208]	1.2	
CN1CCC(C)(CNC(=O)c2cn(C)c(=O)c3[nH]ccc23)CC1 [Example 211, N-[(1,4-dimethyl-4-piperidyl)methyl]-6-methyl-7-oxo-1H-pyrrolo[2,3-c]pyridine-4-carboxamide]	2.2	
CC(C)N1CCC(C)(CNC(=O)c2cn(C)c(=O)c3[nH]ccc23)CC1 [Example 212, N-[(1-isopropyl-4-methyl-4-piperidyl)methyl]-6-methyl-7-oxo-1H-pyrrolo[2,3-c]pyridine-4-carboxamide]	1.7	
CN(C(=O)c1cn(C)c(=O)c2[nH]ccc12)C1CCN(Cc2ccc(C#N)cc2)CC1 [Example 213, N-[1-[(4-cyanophenyl)methyl]-4-piperidyl]-N,6-dimethyl-7-oxo-1H-pyrrolo[2,3-c]pyridine-4-carboxamide]	0.71	
CC(c1ccccc1)N1CCC(N(C)C(=O)c2cn(C)c(=O)c3[nH]ccc23)CC1 (stereo not drawn) [Example 214]		0.66
CN(C(=O)c1cn(C)c(=O)c2[nH]ccc12)C1CCN(Cc2ccccc2F)CC1 [Example 216]	1.2	
Cc1ccc(CN2CCC(N(C)C(=O)c3cn(C)c(=O)c4[nH]ccc34)CC2)cc1 [Example 218]	0.77	
CN(C(=O)c1cn(C)c(=O)c2[nH]ccc12)C1CCN(Cc2cccc(C#N)c2)CC1 [Example 220]	1.1	
COc1ccc(CN2CCC(N(C)C(=O)c3cn(C)c(=O)c4[nH]ccc34)CC2)cc1 [Example 221]	0.67	

Reference: patent US10258603B2 (priority 2014, dated 2019)
